Assay results published in article PMC10253445, “Exploring the Potential of Sulfonamide-Dihydropyridine Hybrids as Multitargeted Ligands for Alzheimer’s Disease Treatment” (International Journal of Molecular Sciences, 2023).
“And” between values parts separate entries of the source, which are not always exact repeats. Equal values may be shown once. “Also recorded” adds a separate entry of the source.

Legend:
[1] = molecular target: T1, EeAChE (Electrophorus electricus, UniProt O42275); assay: biochemical; details: for inhibition at 10 µM: read-out: EeAChE % inhibition at 10 μM (IC50 not given)
T1 construct: purified AChE from Electrophorus; purchased Sigma-Aldrich Type V-S; host or cells: natural enzyme purified from Electrophorus electricus
T1 sequence (O42275 24-633): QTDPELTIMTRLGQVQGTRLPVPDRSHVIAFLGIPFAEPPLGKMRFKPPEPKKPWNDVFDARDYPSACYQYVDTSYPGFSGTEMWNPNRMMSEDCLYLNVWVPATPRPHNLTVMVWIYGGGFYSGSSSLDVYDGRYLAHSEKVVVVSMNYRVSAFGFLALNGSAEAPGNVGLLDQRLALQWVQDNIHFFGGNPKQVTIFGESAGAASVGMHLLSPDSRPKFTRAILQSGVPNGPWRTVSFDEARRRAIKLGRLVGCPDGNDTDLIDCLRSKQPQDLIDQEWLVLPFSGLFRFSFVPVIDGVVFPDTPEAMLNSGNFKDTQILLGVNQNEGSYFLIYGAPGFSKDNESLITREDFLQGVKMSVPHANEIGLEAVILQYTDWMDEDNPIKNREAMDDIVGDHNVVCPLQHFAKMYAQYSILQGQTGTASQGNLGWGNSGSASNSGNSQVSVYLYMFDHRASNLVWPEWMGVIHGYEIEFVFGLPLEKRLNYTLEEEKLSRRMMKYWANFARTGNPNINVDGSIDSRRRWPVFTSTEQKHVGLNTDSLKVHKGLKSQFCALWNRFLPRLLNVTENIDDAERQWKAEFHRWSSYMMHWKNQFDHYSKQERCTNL

[2] = molecular target: T2, eqBChE (Equus caballus, UniProt P81908); assay: biochemical; format: biochemical; details: for IC50: read-out: eqBChE IC50 ± SEM; for inhibition at 10 µM: read-out: eqBChE % inhibition at 10 μM (IC50 not given)
T2 construct: BuChE from horse serum; purchased Sigma-Aldrich; host or cells: horse serum
T2 sequence (P81908 whole entry): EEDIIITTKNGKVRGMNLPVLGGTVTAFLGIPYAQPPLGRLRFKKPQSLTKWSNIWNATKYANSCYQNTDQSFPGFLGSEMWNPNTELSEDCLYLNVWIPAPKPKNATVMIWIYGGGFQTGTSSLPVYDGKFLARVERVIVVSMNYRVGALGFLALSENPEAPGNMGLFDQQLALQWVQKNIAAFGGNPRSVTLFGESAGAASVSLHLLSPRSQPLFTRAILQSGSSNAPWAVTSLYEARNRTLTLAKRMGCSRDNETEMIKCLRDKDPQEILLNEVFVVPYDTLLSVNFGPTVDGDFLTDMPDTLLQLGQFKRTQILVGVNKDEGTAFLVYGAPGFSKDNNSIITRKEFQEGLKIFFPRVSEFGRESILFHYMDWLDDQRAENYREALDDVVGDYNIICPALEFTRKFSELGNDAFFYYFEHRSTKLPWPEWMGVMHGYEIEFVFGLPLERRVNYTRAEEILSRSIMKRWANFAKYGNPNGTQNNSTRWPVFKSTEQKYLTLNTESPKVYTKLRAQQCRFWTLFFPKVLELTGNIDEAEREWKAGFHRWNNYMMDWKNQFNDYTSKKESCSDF

[3] = tested on: calcium channel; assay: Calcium channel blockade, FLIPR calcium indicator 6 in SH-SY5Y cells; format: cell-based; details: KCl/CaCl2-induced calcium flux
Protocol: Assessment of calcium channel blockade of compounds 4a–i was performed according to the previously described protocol using the FLIPR calcium indicator 6 [59]. Briefly, FLIPR-loaded SH-SY5Y cells were exposed for 10 min to a 10 μm concentration of the tested compounds and to nimodipine used as a reference. 0.1% DMSO was used as a vehicle. […] Data were collected in three independent experiments with eight technical replicates per experiment. Outliers detected by the Grubbs test were excluded from further analysis.

[4] = tested on: Nrf2-ARE; assay: Nrf2 transcriptional activation, Nrf2/ARE-luciferase reporter cells; format: cell-based; details: for CD (concentration required to double the specific luciferase reporter activity): 24 h treatment; for lowest concentration with significant induction of the Nrf2 transcriptional pathway: tested at 1, 5, 10, 25, 50 μM for 24 h
Protocol: The Nrf2-ARE activating effect of selected 4a, 4d and 4f was evaluated in vitro using a cell-based luciferase assay in the AREc32 cell line, tert-butylhydroquinone (TBHQ) being used as positive control.
Then, AREc32 cells were treated with increasing concentrations of each compound (1, 5, 10, 25, 50 μM) for 24 h, and luciferase activity was then measured.
The evaluation of Nrf2 transcriptional activation was then performed using non-cytotoxic concentrations of the tested compounds according to the protocol previously described. Briefly, the cells were seeded as described for the MTT assay, except that white 96-well culture plates were used. After 48 h of incubation, the cells were treated with the tested compounds or DMSO (0.1%). After 24 h of treatment, luciferase activity was measured using the Bright–Glo Luciferase Assay System (Promega, Madison, WI, USA) according to the manufacturer’s instructions. All reactions were performed in duplicate and repeated in at least four different cultures.

[5] = Oxygen radical absorbance capacity (ORAC) assay; details: Trolox Equivalents, mean (n = 3) ± SEM
Protocol: Briefly, in a black 96-well microplate (Nunc), fluorescein and the tested compound were incubated for 15 min at 37 °C. […] All reactions were performed in triplicate, and at least three different assays were performed for each sample.

[6] = tested on: Nrf2-ARE; parameters: method as in PMID 27736061; details: cited from earlier work

SMILES | inhibition at 10 µM [1] | Calcium Antagonism (% Inhibition at 10 μM) ± SEM [3] | CD (concentration required to double the specific luciferase reporter activity) [4] | ORAC [5] | inhibition at 10 µM [2] | further results
CCOC(=O)C1=C(C)NC(C)=C(C(=O)OCC)C1c1ccc(NS(=O)(=O)c2ccccc2)cc1 [Compound 4d, Diethyl 2,6-Dimethyl-4-(4-(phenylsulfonamido)phenyl)-1,4-dihydropyridine-3,5-dicarboxylate] | < 50% | 22 ± 4.7% | >50 µM | 1.67 TE and 1.67 ± 0.0 TE | – | fold less active than tacrine on eqBChE [2]: 135 fold; selectivity AChE vs BChE [2]: totally selective to BChE; also recorded: fully selective inhibition of BChE; IC50 [2]: 0.3 ± 0.1 µM; Nrf2 transcriptional activation (luciferase activity) ([4]; 1-50 μM, 24 h): no significant activity
COCCOC(=O)C1=C(C)NC(C)=C(C(=O)OC(C)C)C1c1cccc([N+](=O)[O-])c1 (centres unmarked) [nimodipine, reference compound] | – | 52 ± 4.1% | – | – | – | –
CC1=C(C(=O)OC(C)C)C(c2ccc(NS(=O)(=O)c3ccccc3)cc2)C(C(=O)OC(C)C)=C(C)N1 [Compound 4g, Diisopropyl 2,6-Dimethyl-4-(4-(phenylsulfonamido)phenyl)-1,4-dihydropyridine-3,5-dicarboxylate] | < 50% | 50 ± 4.1% | – | 0.86 TE and 0.86 ± 0.1 TE | < 50% | –
CCOC(=O)C1=C(C)NC(C)=C(C(=O)OCC)C1c1ccc(NS(=O)(=O)c2ccc(C)cc2)cc1 [Compound 4e, Diethyl 2,6-Dimethyl-4-(4-((4-methylphenyl)sulfonamido)phenyl)-1,4-dihydropyridine-3,5-dicarboxylate] | < 50% | 26 ± 4.1% | – | 2.07 ± 0.3 TE | < 50% | –
COC(=O)C1=C(C)NC(C)=C(C(=O)OC)C1c1ccc(NS(=O)(=O)c2ccccc2)cc1 [Compound 4a, Dimethyl 2,6-Dimethyl-4-(4-(phenylsulfonamido)phenyl)-1,4-dihydropyridine-3,5-dicarboxylate] | < 50% | 32 ± 5.1% | 19.3 µM and 19.3 ± 6.7 µM | 1.59 TE and 1.59 ± 0.2 TE | – | selectivity AChE vs BChE [2]: totally selective to BChE; also recorded: fully selective inhibition of BChE; IC50 [2]: 5 ± 0.4 µM; lowest concentration with significant induction of the Nrf2 transcriptional pathway [4]: 25 µM
COC(=O)C1=C(C)NC(C)=C(C(=O)OC)C1c1ccc(NS(=O)(=O)c2ccc(C)cc2)cc1 [Compound 4b, Dimethyl 2,6-Dimethyl-4-(4-((4-methylphenyl)sulfonamido)phenyl)-1,4-dihydropyridine-3,5-dicarboxylate] | < 50% | 37 ± 5.1% | – | 1.96 ± 0.1 TE | < 50% | –
CCOC(=O)C1=C(C)NC(C)=C(C(=O)OCC)C1c1ccc(NS(C)(=O)=O)cc1 [Compound 4f, Diethyl 2,6-Dimethyl-4-(4-(methylsulfonamido)phenyl)-1,4-dihydropyridine-3,5-dicarboxylate] | – | 27 ± 3.5% | 44.3 µM and 44.3 ± 4.7 µM | 1.30 TE and 1.30 ± 0.1 TE | – | IC50 ([1]; read-out: EeAChE IC50 ± SEM): 12.6 ± 1.2 µM; IC50 [2]: 8.7 ± 0.6 µM; lowest concentration with significant induction of the Nrf2 transcriptional pathway [4]: 50 µM
COc1ccc2[nH]cc(CCNC(C)=O)c2c1 [melatonin] | – | – | – | – | – | CD [6]: 60 µM
CC(C)(C)c1cc(O)ccc1O [TBHQ, tert-butylhydroquinone, reference compound] | – | – | 1.2 µM and 1.2 ± 0.2 µM | – | – | –
COC(=O)C1=C(C)NC(C)=C(C(=O)OC)C1c1ccc(NS(C)(=O)=O)cc1 [Compound 4c, Dimethyl 2,6-Dimethyl-4-(4-(methylsulfonamido)phenyl)-1,4-dihydropyridine-3,5-dicarboxylate] | < 50% | – | – | 3.01 TE and 3.01 ± 0.1 TE | < 50% | –
CC1=C(C(=O)OC(C)C)C(c2ccc(NS(=O)(=O)c3ccc(C)cc3)cc2)C(C(=O)OC(C)C)=C(C)N1 [Compound 4h, Diisopropyl 2,6-Dimethyl-4-(4-((4-methylphenyl)sulfonamido)phenyl)-1,4-dihydropyridine-3,5-dicarboxylate] | < 50% | 51 ± 5.3% | – | 1.59 ± 0.1 TE | < 50% | –
CC1=C(C(=O)OC(C)C)C(c2ccc(NS(C)(=O)=O)cc2)C(C(=O)OC(C)C)=C(C)N1 [Compound 4i, Diisopropyl 2,6-Dimethyl-4-(4-(methylsulfonamido)phenyl)-1,4-dihydropyridine-3,5-dicarboxylate] | < 50% | 25 ± 5.1% | – | 1.11 ± 0.3 TE | < 50% | –
